Experimental data published in US20070082876A1, “Novel C18 modified retrosteroids as progesterone receptor modulator compounds” (Solvay Pharmaceuticals GmbH, priority 2005, published 2007).

Key:
[1] = test system: progesterone receptor (alkaline phosphatase expression in T47D human breast carcinoma cells); experiment: Progesterone-dependent alkaline phosphatase expression assay (AP assay), agonistic and antagonistic mode; format: cell-based; settings: for inhibition at 0.1 µM: 100 nM compound, inhibition of alkaline phosphatase induction by 1 nM Dydrogesterone, read-out: PI [100 nM] (% inhibition); for activation at 0.1 µM: 48 h, 100 nM compound alone, alkaline phosphatase induction, 100% = 1 nM Dydrogesterone, read-out: PS [100 nM] (% stimulation); for EC50: agonistic potency; for IC50: antagonistic potency against 1 nM Dydrogesterone
Experimental: The progesterone-dependent modulation of alkaline phosphatase expression was examined using T47D human breast carcinoma cells [Keydar et al., 1979]. The assay was performed as previously described by Di Lorenzo et al. (1991) with the modification of using Dydrogesterone as comparative progestin to determine the antagonistic and agonistic activity.
The cell line was purchased from CLS Cell Lines Service (Hildastrasse 21, D-69214 Eppelheim, Germany).
In brief, the cells were plated in 96-well plates at 40,000 cells/well using the following growth medium: RPMI 1640 with: 10% FBS, 1 mM Sodium Pyruvat MEM, 10 mM Hepes, 0.01 mg/ml Bovine insulin, and 25 μg/ml Gentamycin. After 24 h of cultivation, the growth medium was replaced with medium containing 2% fetal bovine serum and the test compounds were added to each well to achieve the appropriate compound concentration: For determination of agonistic activity only the test compounds were added; for measurement of antagonistic activity the test compounds and additionally Dydrogesterone as standard progesterone agonist was added to a final concentration of 1 nM. After 48 h of cultivation, the medium was removed and the cells were washed with 200 μl of Dulbecco's phosphate-buffered saline without calcium and magnesium (PBS(−)).
Then the cells were fixed with 3.7% formaldehyde in phosphate-buffered saline for 15 min at 22° C. After washing the cells with PBS, 100 μl of a […] (pNPP) solution (pNPP Liquid Substrate System; Sigma) was added to each well and incubated for 2 h at room temperature protected from light. The reaction was stopped with 100 μl 1N NaOH and the absorbance was measured with a spectrophotometer (Victor, Perkin Elmer) at 405 nm.
The results are expressed as alkaline phosphatase induction (as 100% with 1 nM Dydrogesterone) or inhibition (against alkaline phosphatase induction by 1 nM Dydrogesterone) at a certain concentration of test compound.
Calculations: % stimulation=(effect compound−basal)/(effect dydro 1 nM−basal)*100 % inhibition of 1 nM Dydro=100*{1−[(effect compound·basal)/(effect dydro 1 nM·basal)]}
For each compound the % inhibition (PI) and % stimulation (PS), respectively, at a compound concentration of 100 nM was determined. For selected compounds, the corresponding values were measured for several different concentrations, and subsequently were plotted against the concentration of the test compound, and used to calculate the IC50 value (for the antagonistic potency; the IC50 value is the concentration (nM), required to reduce the maximal response by 50%) and EC50 values (for the agonistic potency; the EC50 value is the effective concentration (nM) that produced 50% of the maximum response), respectively.

[2] = molecular target: T1, bovine progesterone receptor (Bos taurus, UniProt F1N712); experiment: Progesterone receptor binding assay (CEREP, 3H-R5020 ligand, uterus tissue); settings: bovine PR; 3H-R5020 as ligand, uterus tissue as receptor source; read-out: Progesterone Receptor binding (pKi) (converted)
T1 construct: uterus tissue as the source of progesterone receptor; tissue CEREP Progesterone receptor-814; host or cells: bovine uterus tissue (the cited method, Hurd & Moudgil 1988, used calf uterus)
T1 sequence (F1N712 1-914): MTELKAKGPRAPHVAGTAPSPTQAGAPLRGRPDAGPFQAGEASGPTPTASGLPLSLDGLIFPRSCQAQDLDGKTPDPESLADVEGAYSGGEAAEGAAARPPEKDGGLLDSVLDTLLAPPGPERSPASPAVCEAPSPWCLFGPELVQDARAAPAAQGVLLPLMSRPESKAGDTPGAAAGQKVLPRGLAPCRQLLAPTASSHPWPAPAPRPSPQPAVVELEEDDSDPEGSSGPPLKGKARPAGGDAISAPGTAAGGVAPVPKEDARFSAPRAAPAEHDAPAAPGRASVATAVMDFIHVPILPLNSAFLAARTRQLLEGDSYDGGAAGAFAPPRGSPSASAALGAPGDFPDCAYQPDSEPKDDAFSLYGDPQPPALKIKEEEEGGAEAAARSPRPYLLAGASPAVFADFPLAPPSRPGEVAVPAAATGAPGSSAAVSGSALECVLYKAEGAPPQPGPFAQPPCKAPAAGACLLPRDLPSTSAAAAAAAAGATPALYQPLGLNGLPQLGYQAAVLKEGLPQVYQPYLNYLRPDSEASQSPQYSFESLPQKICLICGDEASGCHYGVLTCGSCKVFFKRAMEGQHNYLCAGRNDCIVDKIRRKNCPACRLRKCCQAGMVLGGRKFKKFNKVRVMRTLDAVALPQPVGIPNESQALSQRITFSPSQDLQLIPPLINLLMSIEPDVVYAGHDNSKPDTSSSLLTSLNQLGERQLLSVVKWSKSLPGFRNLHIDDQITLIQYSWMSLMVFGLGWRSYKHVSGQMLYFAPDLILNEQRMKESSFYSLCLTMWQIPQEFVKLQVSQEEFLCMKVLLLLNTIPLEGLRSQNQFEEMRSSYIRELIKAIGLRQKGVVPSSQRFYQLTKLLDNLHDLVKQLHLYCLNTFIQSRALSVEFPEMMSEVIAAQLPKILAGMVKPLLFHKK
Experimental: The progesterone receptor (PR) binding assays were performed at CEREP (Celle I'Evescault, France). The binding to the bovine progesterone receptor (Assay Cat No: Progesterone receptor-814) was measured using 3H-R5020 as ligand and uterus tissue as the source of progesterone receptor. The assay was performed as described by Hurd & Moudgil [1988]. […] The results of the receptor binding assay are presented as the individual pKi values for the bovine PR which were determined by measuring the binding activity for a concentration range of each compound.

cycling guinea pigs = experiment: Guinea pig model (luteolysis and uterine PR expression in cycling guinea pigs); format: in vivo; settings: 10mg/kg s.c. once daily on days 10-17 of the cycle; FIG. 1
From the text: An assay how to assess the progesterone antagonists (PAs) and progesterone receptor modulators (PRMs) with respect to PR agonistic and antagonistic activities in vivo is described by Elger et al [2000] and within WO 04/014935 using cycling guinea pigs. In this assay, pure PR antagonists inhibit luteolysis at the end of the ovarian cycle, whereas PR agonist and SPRMs support luteolysis, i.e. this is a very sensitive in vivo method to reveal residual agonistic activity of SPRMs. Inhibition of luteolysis is reflected by elevated serum progesterone levels at day 10-17 and inhibition of uterine prostaglandin F2α, as well as by certain histological characteristics in uterus and ovary, such as increased expression of progesterone receptors and decreased glandular differentiation in the uterus, as well as persistence of large intact corpora lutea up to day 18.
Adult female guinea pigs (strain Dunkin Hartley, Crl:HA; body weight 500-700 g) are purchased from Charles River (Sulzfeld, Germany). Blood samples are drawn from the Vena saphena three times a week to monitor ovarian cycles by determination of progesterone levels. […]
Antiluteolytic activity is evaluated by assessment of serum progesterone profiles throughout the treatment period from day 10 to day 17 (FIG. 1).
Antiprogestational effects on the uterus are assessed by determination of the degree of PR expression. […]

**Q.** With `COc1cccc(CCC[C@]23CC[C@@H]4[C@@H](C=CC5=CC(=O)CC[C@]54C)[C@@H]2CC[C@@H]3C(C)=O)c1` [compound 25] as the compound, how does the inhibition at 0.1 µM [1] read?
**A.** The inhibition at 0.1 µM was 73%.

**Q.** And the activation at 0.1 µM [1]?
**A.** Its activation at 0.1 µM is 12%.

**Q.** What about the EC50 [1] of the same compound?
**A.** Its EC50 is 0.0158 µM.

**Q.** With `CCNC(=O)O/N=C/c1ccc(CCC[C@]23CC[C@@H]4[C@@H](C=CC5=CC(=O)CC[C@]54C)[C@@H]2CC[C@@H]3C(C)=O)cc1` [No. 5] as the compound, how does the inhibition at 0.1 µM [1] read?
**A.** Its inhibition at 0.1 µM is 52%.

**Q.** And the activation at 0.1 µM [1]?
**A.** The activation at 0.1 µM was 35%.

**Q.** What about the IC50 [1] of the same compound?
**A.** Its IC50 is 0.00501 µM.

**Q.** And the Ki [2]?
**A.** Its Ki is 0.2 µM.

**Q.** `CC#C[C@]1(O)CC[C@H]2[C@@H]3CCC4=CC(=O)CCC4=C3[C@@H](c3ccc(N(C)C)cc3)C[C@@]21C` [mifepristone] was tested. Which “antiluteolytic activity (serum progesterone levels day 10 to day 17)” value (cycling guinea pigs) did it give?
**A.** Its value is “do not decline”.

**Q.** Which inhibition at 0.1 µM [1] does the source give for `COc1cc(CCC[C@]23CC[C@@H]4[C@@H](C=CC5=CC(=O)CC[C@]54C)[C@@H]2CC[C@@H]3C(C)=O)cc(OC)c1` [compound 29] here?
**A.** Its inhibition at 0.1 µM is 69%.

**Q.** And the activation at 0.1 µM [1]?
**A.** The activation at 0.1 µM was 15%.

**Q.** And the EC50 [1]?
**A.** The EC50 was 0.0158 µM.

**Q.** Which results are given for `CC(=O)[C@H]1CC[C@H]2[C@@H]3CCC4=CC(=O)CC[C@@]4(C)[C@@H]3CC[C@]12CCCc1ccc(/C=N/O)cc1` [No. 1]?
**A.** inhibition at 0.1 µM [1]: 60%; activation at 0.1 µM [1]: 1%; IC50 [1]: 0.0316 µM; Ki [2]: 1 µM

**Q.** Which results are given for `CCNC(=O)O/N=C/c1ccc(CCC[C@]23CC[C@@H]4[C@@H](CCC5=CC(=O)CC[C@]54C)[C@@H]2CC[C@@H]3C(C)=O)cc1` [No. 4]?
**A.** inhibition at 0.1 µM [1]: 51%; activation at 0.1 µM [1]: 4%; IC50 [1]: 0.0501 µM; Ki [2]: 0.501 µM

**Q.** Which inhibition at 0.1 µM [1] does the source give for `CC(=O)[C@H]1CC[C@H]2[C@@H]3C=CC4=CC(=O)CC[C@@]4(C)[C@@H]3CC[C@]12CCCc1ccc(/C=N/O)cc1` [No. 2] here?
**A.** Its inhibition at 0.1 µM is 77%.

**Q.** What about the activation at 0.1 µM [1] of the same compound?
**A.** The activation at 0.1 µM was 10%.

**Q.** What about the IC50 [1] of the same compound?
**A.** Its IC50 is 0.02 µM.

**Q.** And the Ki [2]?
**A.** The Ki was 0.2 µM.

**Q.** Which inhibition at 0.1 µM [1] does the source give for `CC(=O)[C@H]1CC[C@H]2[C@@H]3C=CC4=CC(=O)CC[C@@]4(C)[C@@H]3CC[C@]12CCCc1ccccc1` [compound 17] here?
**A.** Its inhibition at 0.1 µM is 79%.

**Q.** And the activation at 0.1 µM [1]?
**A.** Its activation at 0.1 µM is 8%.

**Q.** And the EC50 [1]?
**A.** Its EC50 is 0.0251 µM.

**Q.** Which “antiluteolytic activity (serum progesterone levels day 10 to day 17)” value (cycling guinea pigs) does the source give for `CC(=O)[C@H]1CC[C@H]2[C@@H]3C=CC4=CC(=O)CC[C@@]4(C)[C@@H]3CC[C@]12C` [dydrogesterone, (9β,10α)-Pregna-4,6-diene-3,20-dione] here?
**A.** The value was “progesterone levels decrease”.

**Q.** Which results are given for `CCNC(=O)O/N=C/c1ccc(CCC[C@]23CC[C@@H]4[C@@H](C=CC5=CC(=O)CC[C@]54C)[C@@H]2CC[C@]3(OC(=O)OCC)C(C)=O)cc1` [No. 6]?
**A.** inhibition at 0.1 µM [1]: 32%; activation at 0.1 µM [1]: 60%; EC50 [1]: 0.0501 µM; Ki [2]: 0.501 µM

**Q.** Which results are given for `CC(=O)[C@H]1CC[C@H]2[C@@H]3C=CC4=CC(=O)CC[C@@]4(C)[C@@H]3CC[C@]12CCCc1ccc(C(N)=O)cc1` [No. 13]?
**A.** inhibition at 0.1 µM [1]: 79%; activation at 0.1 µM [1]: 7%; IC50 [1]: 0.0501 µM; Ki [2]: 0.2 µM
